# Data taken from US6548242B2, “Process for the sterilization of biological compositions and the product thereby” (priority 1990, dated 2003).
# Where “and” joins values, the source holds several entries; their conditions need not be identical. Equal entries are not always repeated. Where two headings read alike, the source gives them in different places.
# Experiments:
# platelets = assay: Platelet aggregation in response to collagen after treatment of platelet concentrate; format: cell-based; conditions: for % Untreated Control - Extent of Aggregation Response to Collagen, untreated / % Untreated Control - Rate of Aggregation Response to Collagen, untreated: flavonoid present, no AMT/UVA treatment; for Aggregation Response % Control / aggregation response to collagen / Agqregation Response % control: platelet conc.; for Aggregation Response % Control / Agqregation Response % control: 25 μg/ml AMT; for aggregation response to collagen: 100 μg/ml AMT, 90 min UVA
# [1] = system: cell-free vesicular stomatitis virus (VSV); format: cell-based
# bacteriophage M13 = format: cell-based
# RBCCs = assay: Extracellular (plasma) potassium of stored RBCCs; conditions: RBCC, 6.5 μM AlPcS4 + 44 J/cm^2 visible light + 4 mM GSH, 2 days
# [2] = system: encephalomyocarditis virus (EMC); format: cell-based
# cell-associated VSV = format: cell-based, vesicular stomatitis virus
# [3] = system: cell-free vesicular stomatitis virus (VSV); conditions: cited from earlier work
# [4] = 25 μg/ml AMT and 90 minutes of UVA in presence of flavonoid, overnight storage
# [5] = 7.5 mW/cm^2 UVA 30 min, quencher 2 mM
# [6] = 7.5 mW/cm^2 UVA 30 min, quencher 4 mM
# [7] = 7.5 mW/cm^2 UVA 30 min, quencher 10 mM
# [8] = 7.5 mW/cm^2 UVA 30 min, quencher 50 mM
# [9] = 7.5 mW/cm^2 UVA 60 min, quencher 2 mM
# [10] = 7.5 mW/cm^2 UVA 60 min, quencher 4 mM
# [11] = 7.5 mW/cm^2 UVA 60 min, quencher 10 mM
# [12] = 7.5 mW/cm^2 UVA 60 min, quencher 50 mM
# [13] = 7.5 mW/cm^2 UVA 90 min, quencher 4 mM
# [14] = 7.5 mW/cm^2 UVA 90 min, quencher 2 mM
# [15] = 25 μg/ml AMT and 90 minutes of UVA, no flavonoid
# [16] = 11 mW/cm^2 UVA 30 min, quencher 2 mM
# [17] = 11 mW/cm^2 UVA 30 min, quencher 10 mM
# [18] = 11 mW/cm^2 UVA 60 min, quencher 2 mM
# [19] = 11 mW/cm^2 UVA 90 min, quencher 2 mM
compound,measurement,setting,value
C[C@@H]1O[C@@H](O[C@H]2[C@H](Oc3cc(O)c4c(c3)O[C@H](c3ccc(O)cc3)CC4=O)O[C@H](CO)[C@@H](O)[C@@H]2O)[C@H](O)[C@H](O)[C@H]1O [naringin],"% Untreated Control - Extent of Aggregation Response to Collagen, treated",platelets; [4],78 % Untreated Control
same,"% Untreated Control - Rate of Aggregation Response to Collagen, treated",platelets; [4],61 % Untreated Control
same,"% Untreated Control - Extent of Aggregation Response to Collagen, untreated",platelets; overnight storage,90 % Untreated Control
same,"% Untreated Control - Rate of Aggregation Response to Collagen, untreated",platelets; overnight storage,83 % Untreated Control
"CN(C)c1ccc2nc3ccc(=[N+](C)C)cc-3sc2c1 [M8, methylene blue]",LOG10 VIRUS KILL VSV,[1],≧5 LOG10
Superoxide Dismutase,Aggregation Response % Control,"platelets; 7.5 mW/cm^2 UVA 30 min, quencher 20 μg/ml",85 % Control
same,Aggregation Response % Control,"platelets; 7.5 mW/cm^2 UVA 30 min, quencher 100 μg/ml",75 % Control
same,Aggregation Response % Control,"platelets; 7.5 mW/cm^2 UVA 60 min, quencher 20 μg/ml",50 % Control
same,Aggregation Response % Control,"platelets; 7.5 mW/cm^2 UVA 60 min, quencher 100 μg/ml",45 % Control
same,Aggregation Response % Control,"platelets; 7.5 mW/cm^2 UVA 90 min, quencher 20 μg/ml",30 % Control
same,Virus Kill (log10) M13,bacteriophage M13,3.9 log10
same,Virus Inactivation (log10) Cell-Free VSV,[1],≧6.0 log10
aluminum phthalocyanine tetrasulfonate [AlPcS4],plasma K+,"RBCCs; with γ-irradiation 25 Gy, no rutin",75 mM
same,plasma K+,RBCCs; without γ-irradiation,60 mM
"O=C1O[C@H]([C@@H](O)CO)C(O)=C1O [Ascorbate, ascorbate]",Virus Kill (log10) M13,bacteriophage M13,4.7 log10
same,Virus Kill (log10) EMC,[2],≧7.7 log10
same,Virus Kill (log10) VSV,[1],≧6.5 log10
"OCC(O)CO [Glycerol, glycerol]",Aggregation Response % Control,platelets; [5],90 % Control
same,Aggregation Response % Control,platelets; [6],95 % Control
same,Aggregation Response % Control,platelets; [7],80 % Control
same,Aggregation Response % Control,platelets; [8],85 % Control
same,Aggregation Response % Control,platelets; [9],50 % Control
same,Aggregation Response % Control,platelets; [10],55 % Control
same,Aggregation Response % Control,platelets; [11],50 % Control
same,Aggregation Response % Control,platelets; [12],50 % Control
same,Aggregation Response % Control,platelets; [13],35 % Control
same,Virus Kill (log10) M13,bacteriophage M13,6.6 log10
sodium carpryl N-acetyl tryptophan [SCNAT],Virus Kill (log10) M13,bacteriophage M13,1.6 log10
O=c1cc(-c2ccccc2)oc2cc(O)cc(O)c12 [chrysin],"% Untreated Control - Extent of Aggregation Response to Collagen, treated",platelets; [4],90 % Untreated Control
same,"% Untreated Control - Rate of Aggregation Response to Collagen, treated",platelets; [4],85 % Untreated Control
same,"% Untreated Control - Extent of Aggregation Response to Collagen, untreated",platelets; overnight storage,100/100 % Untreated Control
same,"% Untreated Control - Rate of Aggregation Response to Collagen, untreated",platelets; overnight storage,100/100 % Untreated Control
"N[C@@H](CCC(=O)N[C@@H](CS)C(=O)NCC(=O)O)C(=O)O [Glutathione, glutathione]",Aggregation Response % Control,platelets; [5],80 % Control
same,Aggregation Response % Control,platelets; [6],80 % Control
same,Aggregation Response % Control,platelets; [7],75 % Control
same,Aggregation Response % Control,platelets; [9],60 % Control
same,Aggregation Response % Control,platelets; [10],55 % Control
same,Aggregation Response % Control,platelets; [14],40 % Control
same,Aggregation Response % Control,platelets; [13],25 % Control
same,Virus Kill (log10) M13,bacteriophage M13,4.4 log10
same,Virus Inactivation (log10) Cell-Free VSV,[1],≧6.0 log10
O=c1c(O)c(-c2ccc(O)c(O)c2)oc2cc(O)cc(O)c12 [quercetin],"% Untreated Control - Extent of Aggregation Response to Collagen, treated",platelets; [4],98/98 % Untreated Control
same,"% Untreated Control - Rate of Aggregation Response to Collagen, treated",platelets; [4],98/98 % Untreated Control
same,"% Untreated Control - Extent of Aggregation Response to Collagen, untreated",platelets; overnight storage,100/100 % Untreated Control
same,"% Untreated Control - Rate of Aggregation Response to Collagen, untreated",platelets; overnight storage,100/100 % Untreated Control
same,Virus Kill (log10) M13,bacteriophage M13,5.0 log10
same,Virus Kill (log10) EMC,[2],≧7.7 log10
same,Virus Kill (log10) VSV,[1],≧6.5 log10
same,inactivation of cell-associated VSV,cell-associated VSV,~6 log10
"OC[C@@H](O)[C@@H](O)[C@H](O)[C@H](O)CO [Mannitol, mannitol]",Aggregation Response % Control,platelets; [5],95 % Control
same,Aggregation Response % Control,platelets; [6],95 % Control
same,Aggregation Response % Control,platelets; [7],91 % Control
same,Aggregation Response % Control,platelets; [8],85 % Control
same,Aggregation Response % Control,platelets; [9],60 % Control
same,Aggregation Response % Control,platelets; [10],58 % Control
same,Aggregation Response % Control,platelets; [11],56 % Control
same,Aggregation Response % Control,platelets; [12],55 % Control
same,Aggregation Response % Control,platelets; [14],32 % Control
same,Aggregation Response % Control,"platelets; 7.5 mW/cm^2 UVA 90 min, quencher 50 mM",30 % Control
same,aggregation response to collagen,platelets; 2 mM mannitol,no response at all
same,Virus Kill (log10) M13,bacteriophage M13,6.6 log10
"Cc1oc2c(C)c3oc(=O)cc(C)c3cc2c1CN [AMT, 4′-aminomethyl-4,5′,8-trimethylpsoralen]","% Untreated Control - Extent of Aggregation Response to Collagen, treated",platelets; [15],44 % Untreated Control
same,"% Untreated Control - Rate of Aggregation Response to Collagen, treated",platelets; [15],24 % Untreated Control
same,agg response,"platelets; Platelet Conc., 50 μg/ml AMT + 57 J/cm^2 UVA, quencher none",≤ 30%
same,Aggregation Response % Control,"platelets; 7.5 mW/cm^2 UVA 60 min, no quencher",52 % Control
same,Aggregation Response % Control,"platelets; 7.5 mW/cm^2 UVA 90 min, no quencher",35 % Control
same,Agqregation Response % control,"platelets; 11 mW/cm^2 UVA 30 min, no quencher",75 % control
same,Agqregation Response % control,"platelets; 11 mW/cm^2 UVA 60 min, no quencher",52 % control
same,aggregation response to collagen,platelets; no quencher,no response at all
same,LOG10 VIRUS KILL M13,bacteriophage M13,3 LOG10 and 5 LOG10
same,inactivation of bacteriophage M13,bacteriophage M13,at least 4 log 10
same,LOG10 VIRUS KILL VSV,[1],≧6 LOG10
same,inactivation of cell-free VSV,[1],completely inactivated
same,inactivation of cell-free VSV,[3],≥ 6.0 log10
"N[C@@H](Cc1c[nH]c2ccccc12)C(=O)O [Tryptophan, tryptophan]",Agqregation Response % control,platelets; [16],70 % control
same,Agqregation Response % control,"platelets; 11 mW/cm^2 UVA 30 min, quencher 4 mM",60 % control
same,Agqregation Response % control,platelets; [17],45 % control
same,Agqregation Response % control,platelets; [18],50 % control
same,Agqregation Response % control,"platelets; 11 mW/cm^2 UVA 60 min, quencher 4 mM",45 % control
same,Agqregation Response % control,"platelets; 11 mW/cm^2 UVA 60 min, quencher 10 mM",20 % control
same,Agqregation Response % control,platelets; [19],30 % control
same,Agqregation Response % control,"platelets; 11 mW/cm^2 UVA 90 min, quencher 4 mM",20 % control
same,Agqregation Response % control,"platelets; 11 mW/cm^2 UVA 90 min, quencher 10 mM",0 % control
Cc1c(C)c2c(c(C)c1OP(=O)(O)O)CC[C@@](C)(CCC[C@H](C)CCC[C@H](C)CCCC(C)C)O2 [α-tocopherol phosphate],Agqregation Response % control,"platelets; 11 mW/cm^2 UVA 30 min, quencher 0.5 mM",76 % control
same,Agqregation Response % control,"platelets; 11 mW/cm^2 UVA 30 min, quencher 1.0 mM",75 % control
same,Agqregation Response % control,platelets; [16],70 % control
same,Agqregation Response % control,"platelets; 11 mW/cm^2 UVA 60 min, quencher 0.5 mM",55 % control
same,Agqregation Response % control,"platelets; 11 mW/cm^2 UVA 60 min, quencher 1.0 mM",60 % control
same,Agqregation Response % control,platelets; [18],50 % control
same,Agqregation Response % control,"platelets; 11 mW/cm^2 UVA 90 min, quencher 0.5 mM",35 % control
same,Agqregation Response % control,"platelets; 11 mW/cm^2 UVA 90 min, quencher 1.0 mM",40 % control
same,Agqregation Response % control,platelets; [19],30 % control
COc1ccc([C@@H]2CC(=O)c3c(O)cc(O[C@@H]4O[C@H](CO[C@@H]5O[C@@H](C)[C@H](O)[C@@H](O)[C@H]5O)[C@@H](O)[C@H](O)[C@H]4O)cc3O2)cc1O [hesperidin],"% Untreated Control - Extent of Aggregation Response to Collagen, treated",platelets; [4],100 % Untreated Control
same,"% Untreated Control - Rate of Aggregation Response to Collagen, treated",platelets; [4],86 % Untreated Control
same,"% Untreated Control - Extent of Aggregation Response to Collagen, untreated",platelets; overnight storage,98 % Untreated Control
same,"% Untreated Control - Rate of Aggregation Response to Collagen, untreated",platelets; overnight storage,90 % Untreated Control
"N[C@@H](Cc1c[nH]cn1)C(=O)O [Histidine, histidine]",Agqregation Response % control,"platelets; 11 mW/cm^2 UVA 30 min, quencher 5 mM",75 % control
same,Agqregation Response % control,platelets; [17],65 % control
same,Agqregation Response % control,"platelets; 11 mW/cm^2 UVA 60 min, quencher 5 mM",55 % control
same,Agqregation Response % control,"platelets; 11 mW/cm^2 UVA 90 min, quencher 5 mM",35 % control
same,Virus Kill (log10) M13,bacteriophage M13,4.0 log10
same,Virus Kill (log10) Cell-free VSV,[1],5.1 log10 and 4.8 log10
